# Measured values taken from PubChem BioAssay AID330 (DTP/NCI, 2004).
# Several values for one entry are separate records, joined by “and”; a condition that tells them apart may be missing. Equal values may be shown once. Inconclusive results and toxic doses are left out.
# Tested on: P388 leukemia ip, CD2F1 mice, survival T/C
# Assay: NCI In Vivo Anticancer Drug Screen. Data for tumor model P388 Leukemia (intraperitoneal) in CD2F1 (CDF1) mice
# Conditions: endpoint: median survival time, higher = longer survival
# In short: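 Mice carrying the transplanted tumor received test compound or vehicle. Survival was recorded in each group, and the value is the treated-group measurement divided by that of the vehicle-treated control group.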
# [1] = dose: 50.0 mg/kg/injection, schedule: Q01DX009 (ip), vehicle: saline with Tween-80
# [2] = dose: 25.0 mg/kg/injection, schedule: Q01DX005 (ip), vehicle: saline
# [3] = dose: 50.0 mg/kg/injection, schedule: Q01DX005 (ip), vehicle: saline
# [4] = dose: 100.0 mg/kg/injection, schedule: Q01DX009 (ip), vehicle: saline with Tween-80
# [5] = dose: 200.0 mg/kg/injection, schedule: Q01DX009 (ip), vehicle: saline with Tween-80
# [6] = dose: 60.0 mg/kg/injection, schedule: Q01DX005 (ip), vehicle: Klucel (hydroxypropylcellulose) (HPC)
# [7] = dose: 120.0 mg/kg/injection, schedule: Q01DX005 (ip), vehicle: Klucel (hydroxypropylcellulose) (HPC)
smiles,measurement,setting,value
CS\C(N)=N/N=C/C(C)=N/N=C(/N)SC,T/C,"dose: 50.0 mg/kg/injection, schedule: Q04DX002 (ip), vehicle: saline with Tween-80",101 % of control
same,T/C,"dose: 100.0 mg/kg/injection, schedule: Q04DX002 (ip), vehicle: saline with Tween-80",100 % of control
same,T/C,"dose: 200.0 mg/kg/injection, schedule: Q04DX002 (ip), vehicle: saline with Tween-80",100 % of control
O=C(CCSC1=NCCCN1)c1ccc(F)cc1,T/C,"dose: 12.5 mg/kg/injection, schedule: Q01DX009 (ip), vehicle: saline with Tween-80",111 % of control
same,T/C,"dose: 25.0 mg/kg/injection, schedule: Q01DX009 (ip), vehicle: saline with Tween-80",118 % of control
same,T/C,[1],118 % of control and 120 % of control
Cc1cc(=O)oc2cc(OC(=O)C(CCCCN)NC(=O)OCc3ccccc3)ccc12 (stereo not given),T/C,"dose: 6.25 mg/kg/injection, schedule: Q01DX009 (ip), vehicle: other",101 % of control
same,T/C,"dose: 12.5 mg/kg/injection, schedule: Q01DX009 (ip), vehicle: other",99 % of control
same,T/C,"dose: 25.0 mg/kg/injection, schedule: Q01DX009 (ip), vehicle: other",121 % of control
same,T/C,"dose: 50.0 mg/kg/injection, schedule: Q01DX009 (ip), vehicle: other",114 % of control
same,T/C,"dose: 100.0 mg/kg/injection, schedule: Q01DX009 (ip), vehicle: other",117 % of control
C[n+]1cccc(C(=O)O)c1,T/C,[2],100 % of control
same,T/C,[3],101 % of control
same,T/C,"dose: 100.0 mg/kg/injection, schedule: Q01DX005 (ip), vehicle: saline",99 % of control
same,T/C,"dose: 200.0 mg/kg/injection, schedule: Q01DX005 (ip), vehicle: saline",91 % of control
CNc1ccc2ccc(N(C)C)cc2n1,T/C,"dose: 12.5 mg/kg/injection, schedule: Q04DX002 (ip), vehicle: Klucel (hydroxypropylcellulose) (HPC)",102 % of control
same,T/C,"dose: 25.0 mg/kg/injection, schedule: Q04DX002 (ip), vehicle: Klucel (hydroxypropylcellulose) (HPC)",97 % of control
same,T/C,"dose: 50.0 mg/kg/injection, schedule: Q04DX002 (ip), vehicle: Klucel (hydroxypropylcellulose) (HPC)",101 % of control
CC(=O)Oc1cc2c3c(c1)-c1c(ccc(OC(C)=O)c1OC(C)=O)CC3NCC2 (stereo not given),T/C,"dose: 3.13 mg/kg/injection, schedule: Q04DX003 (ip), vehicle: DMSO",101 % of control
same,T/C,"dose: 6.25 mg/kg/injection, schedule: Q04DX003 (ip), vehicle: DMSO",101 % of control
same,T/C,"dose: 12.5 mg/kg/injection, schedule: Q04DX003 (ip), vehicle: DMSO",103 % of control
same,T/C,"dose: 25.0 mg/kg/injection, schedule: Q04DX003 (ip), vehicle: DMSO",108 % of control
same,T/C,"dose: 50.0 mg/kg/injection, schedule: Q04DX003 (ip), vehicle: DMSO",108 % of control
same,T/C,"dose: 100.0 mg/kg/injection, schedule: Q04DX003 (ip), vehicle: DMSO",99 % of control
CNC(=O)Nc1nc2ccccc2[nH]1,T/C,"dose: 20.0 mg/kg/injection, schedule: Q04DX003 (ip), vehicle: other",100 % of control
same,T/C,"dose: 20.0 mg/kg/injection, schedule: Q04DX003 (oral), vehicle: other",100 % of control
same,T/C,"dose: 40.0 mg/kg/injection, schedule: Q04DX003 (ip), vehicle: other",95 % of control
same,T/C,"dose: 40.0 mg/kg/injection, schedule: Q04DX003 (oral), vehicle: other",100 % of control
same,T/C,"dose: 50.0 mg/kg/injection, schedule: Q04DX003 (ip), vehicle: Klucel (hydroxypropylcellulose) (HPC)",100 % of control (2×) and 109 % of control
same,T/C,"dose: 80.0 mg/kg/injection, schedule: Q04DX003 (ip), vehicle: other",102 % of control
same,T/C,"dose: 80.0 mg/kg/injection, schedule: Q04DX003 (oral), vehicle: other",100 % of control
same,T/C,"dose: 100.0 mg/kg/injection, schedule: Q04DX003 (ip), vehicle: Klucel (hydroxypropylcellulose) (HPC)",105 % of control and 111 % of control and 116 % of control
same,T/C,"dose: 160.0 mg/kg/injection, schedule: Q04DX003 (ip), vehicle: other",111 % of control
same,T/C,"dose: 160.0 mg/kg/injection, schedule: Q04DX003 (oral), vehicle: other",104 % of control
same,T/C,"dose: 200.0 mg/kg/injection, schedule: Q04DX003 (ip), vehicle: Klucel (hydroxypropylcellulose) (HPC)",112 % of control and 118 % of control
same,T/C,"dose: 320.0 mg/kg/injection, schedule: Q04DX003 (ip), vehicle: other",119 % of control
same,T/C,"dose: 320.0 mg/kg/injection, schedule: Q04DX003 (oral), vehicle: other",102 % of control
same,T/C,"dose: 400.0 mg/kg/injection, schedule: Q04DX003 (ip), vehicle: Klucel (hydroxypropylcellulose) (HPC)",109 % of control and 121 % of control
same,T/C,"dose: 640.0 mg/kg/injection, schedule: Q04DX003 (ip), vehicle: other",154 % of control
same,T/C,"dose: 640.0 mg/kg/injection, schedule: Q04DX003 (oral), vehicle: other",109 % of control
C1=C\CCCCCCCC/1,T/C,"dose: 1.56 mg/kg/injection, schedule: Q01DX009 (ip), vehicle: saline with Tween-80",100 % of control
same,T/C,"dose: 3.13 mg/kg/injection, schedule: Q01DX009 (ip), vehicle: saline with Tween-80",91 % of control
same,T/C,"dose: 6.25 mg/kg/injection, schedule: Q01DX009 (ip), vehicle: saline with Tween-80",100 % of control
same,T/C,"dose: 6.25 mg/kg/injection, schedule: Q04DX003 (ip), vehicle: saline",109 % of control
same,T/C,"dose: 12.5 mg/kg/injection, schedule: Q04DX003 (ip), vehicle: saline",100 % of control
same,T/C,"dose: 25.0 mg/kg/injection, schedule: Q04DX003 (ip), vehicle: saline",104 % of control
Cc1cccc(C)c1OCc1n[nH]c(=S)n1-c1ccccc1,T/C,"dose: 50.0 mg/kg/injection, schedule: Q01DX005 (ip), vehicle: Klucel (hydroxypropylcellulose) (HPC)",89 % of control
same,T/C,"dose: 100.0 mg/kg/injection, schedule: Q01DX005 (ip), vehicle: Klucel (hydroxypropylcellulose) (HPC)",90 % of control
same,T/C,"dose: 200.0 mg/kg/injection, schedule: Q01DX005 (ip), vehicle: Klucel (hydroxypropylcellulose) (HPC)",90 % of control
Cn1nnc2c1C(=O)c1ccccc1C2=O,T/C,[1],106 % of control
same,T/C,[4],111 % of control
same,T/C,[5],110 % of control
O=C1OCC/C1=C\NCCCCCCCCN/C=C1\CCOC1=O,T/C,[6],97 % of control
same,T/C,[7],102 % of control
same,T/C,"dose: 240.0 mg/kg/injection, schedule: Q01DX005 (ip), vehicle: Klucel (hydroxypropylcellulose) (HPC)",105 % of control
COC1N(C2CC(O)C(CO)O2)C(=O)NC(=O)C1(F)Br (stereo not given),T/C,"dose: 178.0 mg/kg/injection, schedule: Q04DX003 (ip), vehicle: saline",118 % of control
CNCS(=O)(=O)O,T/C,"dose: 50.0 mg/kg/injection, schedule: Q01DX009 (ip), vehicle: saline",106 % of control
same,T/C,"dose: 100.0 mg/kg/injection, schedule: Q01DX009 (ip), vehicle: saline",101 % of control
same,T/C,"dose: 200.0 mg/kg/injection, schedule: Q01DX009 (ip), vehicle: saline",93 % of control
CC12c3ccccc3CCN1C(c1ccccc1)=NN2c1ccccc1 (stereo not given),T/C,"dose: 100.0 mg/kg/injection, schedule: Q01DX001 (ip), vehicle: saline with Tween-80",105 % of control
same,T/C,"dose: 200.0 mg/kg/injection, schedule: Q01DX001 (ip), vehicle: saline with Tween-80",103 % of control
same,T/C,"dose: 400.0 mg/kg/injection, schedule: Q01DX001 (ip), vehicle: saline with Tween-80",102 % of control
c1ccc2c3cc(cc2c1)OCCOCCOCCOCCOCCOc1ccc2ccccc2c1-3,T/C,[1],101 % of control
same,T/C,[4],101 % of control
same,T/C,[5],103 % of control
CC(=O)C1CO1 (stereo not given),T/C,"dose: 12.5 mg/kg/injection, schedule: Q01DX005 (ip), vehicle: saline",105 % of control
same,T/C,[2],107 % of control
same,T/C,[3],110 % of control and 116 % of control
Nc1ccc(CCCCc2ccc(Cl)c(S(=O)(=O)F)c2)c(Cl)c1,T/C,[4],91 % of control
same,T/C,[5],91 % of control
CCn1c(C)nc2c(N)cc(C(F)(F)F)cc21 (tested in a mixture with another compound),T/C,"dose: 30.0 mg/kg/injection, schedule: Q01DX005 (ip), vehicle: Klucel (hydroxypropylcellulose) (HPC)",95 % of control
same,T/C,[6],100 % of control
same,T/C,[7],99 % of control
C=CCSc1nc2ccc(NC(=O)CCC(=O)O)cc2s1,T/C,"dose: 50.0 mg/kg/injection, schedule: Q01DX009 (ip), vehicle: Klucel (hydroxypropylcellulose) (HPC)",103 % of control
same,T/C,"dose: 100.0 mg/kg/injection, schedule: Q01DX009 (ip), vehicle: Klucel (hydroxypropylcellulose) (HPC)",111 % of control
same,T/C,"dose: 200.0 mg/kg/injection, schedule: Q01DX009 (ip), vehicle: Klucel (hydroxypropylcellulose) (HPC)",93 % of control
C=CS(=O)(=O)c1ccc(C)cc1,T/C,"dose: 1.56 mg/kg/injection, schedule: Q01DX009 (ip), vehicle: Klucel (hydroxypropylcellulose) (HPC)",104 % of control
same,T/C,"dose: 3.13 mg/kg/injection, schedule: Q01DX009 (ip), vehicle: Klucel (hydroxypropylcellulose) (HPC)",99 % of control and 105 % of control
same,T/C,"dose: 6.25 mg/kg/injection, schedule: Q01DX009 (ip), vehicle: Klucel (hydroxypropylcellulose) (HPC)",121 % of control and 95 % of control
same,T/C,"dose: 12.5 mg/kg/injection, schedule: Q01DX009 (ip), vehicle: Klucel (hydroxypropylcellulose) (HPC)",99 % of control and 111 % of control
